Counter-ions that a name gives are not always drawn.
Key:
[1] = target: hNPY-1,2,4 (human Y1, Y2, Y4 receptors); assay: Radioligand binding to membranes, cloned human Y1, Y2 and Y4 receptors; conditions: one bound given for all three
Protocol: (§1) Binding of the compounds of the present invention to human Y1, Y2, Y4, and Y5 receptors was evaluated using stably transfected 293 or LM(tk-) cells as described above. Stably transfected cell lines which may be used for binding assays include, for example, for the human Y1 receptor, 293-hY1-5 (deposited Jun. 4, 1996, under ATCC Accession No. CRL-12121), for the human Y2 receptor, 293-hY2-10 (deposited Jan. 27, 1994, under ATCC Accession No. CRL-11537), for the human Y4 receptor, L-hY4-3 (deposited Jan. 11, 1995, under ATCC Accession No. CRL-11779), and for human Y5 receptor, L-hY5-7 (deposited Nov. 15, 1995, under ATCC Accession No. CRL-11995). These cell lines were deposited with the American Type Culture Collection (ATCC), 10801 University Blvd., Manassas, Va. 20110-2209, U.S.A. under the provisions of the Budapest Treaty for the International Recognition of the Deposit of Microorganisms for the Purposes of Patent Procedure.
(§2) Membranes were harvested from COS-7 cells 48 hours after transient transfection. Adherent cells were washed twice in ice-cold phosphate buffered saline (138 mM NaCl, 8.1 mM Na2HPO4, 2.5 mM KCl, 1.2 mM KH2PO4, 0.9 mM CaCl2, 0.5 mM MgCl2, pH 7.4) and lysed by sonication in ice-cold sonication buffer (20 mM Tris-HCl, 5 mM EDTA, pH 7.7). Large particles and debris were cleared by low speed centrifugation (200×g, 5 min, 4° C.). Membranes were collected from the supernatant fraction by centrifugation (32,000×g, 18 min, 4° C.), washed with ice-cold hypotonic buffer, and collected again by centrifugation (32,000×g, 18 min, 4° C.). The final membrane pellet was resuspended by sonication into a small volume of ice-cold binding buffer (˜1 ml for every 5 plates: 10 mM NaCl, 20 mM HEPES, 0.22 mM KH2PO4, 1.26 mM CaCl2, 0.81 mM MgSO4, pH 7.4). Protein concentration was measured by the Bradford method (Bradford, 1976) using Bio-Rad Reagent, with bovine serum albumin as a standard. Membranes were held on ice for up to one hour and used fresh, or flash-frozen and stored in liquid nitrogen.
(§3) Membranes were prepared similarly from 293, LM(tk-), and NIH-3T3 cells. To prepare membranes from baculovirus infected cells, 2×10^7 Sf21 cells were grown in 150 mm tissue culture dishes and infected with a high-titer stock of hY5BB3. Cells were incubated for 2-4 days at 27° C., no CO2 before harvesting and membrane preparation as described above.
(§4) Membrane suspensions were diluted in binding buffer supplemented with 0.1% bovine serum albumin to yield an optimal membrane protein concentration so that ^125I-PYY (or alternative radioligand such as ^125I-NPY, ^125I-PYY3-36, or ^125I-[Leu^31Pro^34]PYY) bound by membranes in the assay was less than 10% of ^125I-PYY (or alternative radioligand) delivered to the sample (100,000 dpm/sample=0.08 nM for competition binding assays). ^125I-PYY (or alternative radioligand) and peptide competitors were also diluted to desired concentrations in supplemented binding buffer. Individual samples were then prepared in 96-well polypropylene microtiter plates by mixing 125I-PYY (25 μL) (or alternative radioligand), competing peptides or supplemented binding buffer (25 μL), and finally, membrane suspensions (200 μL). Samples were incubated in a 30° C. water bath with constant shaking for 120 min. Incubations were terminated by filtration over Whatman GF/C filters (pre-coated with 1% polyethyleneimine and air-dried before use), followed by washing with 5 mL of ice-cold binding buffer. Filter-trapped membranes were impregnated with MeltiLex solid scintillant (Wallac, Turku, Finland) and counted for ^125I in a Wallac Beta-Plate Reader. Alternatively, incubations were carried out in GF/C filter plates (pre-coated with 1% polyethyleneimine and air-dried before use), followed by vacuum filtration and three washes of 300 μL of ice-cold binding buffer. 50 μL of UltimaGold (Packard) scintillant were added and counted for ^125I in a Wallac MicroBeta Trilux. […]

[2] = target: T1, human Y5 receptor (hNPY-5) (Homo sapiens, UniProt Q15761); assay: Radioligand binding to membranes, cloned human Y5 receptor; conditions: cloned human NPY Y5 receptor, radioligand competition binding; Tables 1-3; read-out: Ki, nM hNPY-5
T1 construct: expressed in transfected cells; host or cells: mouse fibroblast LM(tk-) cells, e.g. L-hY5-7 (ATCC CRL-11995)
T1 sequence (Q15761 1-445): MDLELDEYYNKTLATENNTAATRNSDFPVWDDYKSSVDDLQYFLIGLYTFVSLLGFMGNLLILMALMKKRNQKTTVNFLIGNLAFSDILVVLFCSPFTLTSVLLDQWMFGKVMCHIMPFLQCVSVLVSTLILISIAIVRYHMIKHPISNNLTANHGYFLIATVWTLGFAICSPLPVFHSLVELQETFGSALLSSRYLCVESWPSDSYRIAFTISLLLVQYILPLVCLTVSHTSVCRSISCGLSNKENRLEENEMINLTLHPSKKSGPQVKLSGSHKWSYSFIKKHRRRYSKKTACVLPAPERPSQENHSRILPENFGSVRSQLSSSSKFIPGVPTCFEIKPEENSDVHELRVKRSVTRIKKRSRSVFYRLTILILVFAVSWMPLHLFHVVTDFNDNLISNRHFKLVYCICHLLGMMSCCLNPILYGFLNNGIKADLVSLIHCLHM
Protocol: as §1, §2, §3, §4

SMILES	Ki [1]	Ki [2]	melting point
O=S(=O)(CC(F)(F)F)NCCCCNc1nc2c(s1)CCCc1ccc(F)cc1-2 [Example 39, 1-Aza-9-fluoro-4,5-dihydro-2-(4-(2,2,2-trifluoroethyl)-sulfonylamino)butylamino-3-thia-benzo[e]azulene]	> 10000 nM	4.8 nM	
O=S(=O)(NCCCCNc1nc2c(s1)CCCc1ccc(F)cc1-2)c1ccccc1F [Example 7, 1-Aza-9-fluoro-2-(4-(2-fluorophenyl)sulfonylamino)-butylamino-4,5-dihydro-3-thia-benzo[e]azulene]	> 10000 nM	23 nM	
CCS(=O)(=O)N[C@H]1CC[C@H](CNc2nc3c(s2)CCOc2ccc(OC)cc2-3)CC1 [Example 64, trans-N2-(4-Ethylsulfonylamino)cyclohexylmethyl-9-methoxy-4,5-dihydro-benzo[2,3]oxepino[4,5-d][1,3]thiazol-2-amine]		12.2 nM	165 to 170 °C
O=S(=O)(Cc1ccccc1)NCCCCCNc1nc2c(s1)CCCc1ccc(F)cc1-2 [Example 16, 1-Aza-2-(5-benzylsulfonylamino)pentylamino-9-fluoro-4,5-dihydro-3-thia-benzo[e]azulene]	> 10000 nM	4.7 nM	
COc1ccc(C)cc1S(=O)(=O)NCCCCC(=O)Nc1nc2c(s1)CCCc1ccc(F)cc1-2 [Example 49, N1-(9-Fluoro-5,6-dihydro-4H-benzo[6,7]cyclohepta-[d][1,3]-thiazol-2-yl)-5-[(2-methoxy-5-methylphenyl)-sulfonyl]-aminopentanamide]		2.9 nM	70 to 75 °C
CS(=O)(=O)NCCCCCNc1nc2c(s1)CCCc1ccc(F)cc1-2 [Example 10, 1-Aza-9-fluoro-4,5-dihydro-2-(5-(methylsulfonyl-amino)-pentyl)amino-3-thia-benzo [e]azulene]	> 10000 nM	2.4 nM	
O=S(=O)(NC[C@H]1CC[C@H](Nc2nc3c(s2)CCCc2ccc(F)cc2-3)CC1)c1cccs1 [Example 30, trans-N2-(4-(2-Thienylsulfonyl)aminomethyl)-cyclohexyl-9-fluoro-5,6-dihydro-4H-benzo[6,7]-cyclohepta[d][1,3]thiazol-2-amine]	> 10000 nM	4.2 nM	
O=S(=O)(NC[C@H]1CC[C@H](Nc2nc3c(s2)CCCc2ccc(F)cc2-3)CC1)c1ccc(F)c(F)c1 [Example 40, trans-1-Aza-9-fluoro-2-{4-(3,4-difluorophenyl)-sulfonyl-aminomethyl}cyclohexylamino-4,5-dihydro-3-thia-benzo[e]azulene]	> 10000 nM	19.5 nM	
CS(=O)(=O)NCc1ccc(Nc2nc3c(s2)CCCc2ccc(F)cc2-3)cc1 [Example 90, N-{4-[(9-Fluoro-5,6-dihydro-4H-benzo[6,7]cyclohepta-[d][1,3]thiazol-2-yl)amino]benzyl}methanesulfonamide]		5.7 nM	148 to 150 °C
COc1ccc(C)cc1S(=O)(=O)NC[C@H]1CC[C@H](Nc2nc3c(s2)CCOc2ccccc2-3)CC1 [Example 48, trans-1-Aza-4,5-dihydro-2-{4-(2-methoxy-5-methyl)phenyl-sulfonylaminomethyl}cyclohexylamino-6-oxa-3-thia-benzo[e]azulene]	> 10000 nM	15.1 nM	
CS(=O)(=O)NCCOCCNc1nc2c(s1)CCCc1ccc(F)cc1-2 [Example 57, 1-Aza-9-fluoro-4,5-dihydro-2-{2-(2-methylsulfonyl-amino)ethoxy}ethylamino-3-thia-benzo[e]azulene]		66 nM	159 to 162 °C
COc1ccc(C)cc1S(=O)(=O)N[C@H]1CC[C@H](CNc2nc3c(s2)CCOc2ccccc2-3)CC1 [Example 51, trans-1-Aza-4,5-dihydro-2-{4-(2-methoxy-5-methyl-phenyl)-sulfonylamino}cyclohexylmethylamino-6-oxa-3-thia-benzo[e]azulene]		8.3 nM	220 to 224 °C
CCS(=O)(=O)N[C@H]1CC[C@H](CNc2nc3c(s2)CCOc2cc(OC)ccc2-3)CC1 [Example 60, trans-N2-(4-Ethylsulfonylamino)cyclohexylmethyl-8-methoxy-4,5-dihydro-benzo[2,3]oxepino[4,5-d][1,3]thiazol-2-amine]		31 nM	170 to 172 °C
COc1ccc2c(c1)CCCc1sc(N[C@H]3CC[C@H](CNS(C)(=O)=O)CC3)nc1-2 [Example 72, trans-1-Aza-4,5-dihydro-8-methoxy-2-(4-methyl-sulfonylamino-methyl)cyclohexylamino-3-thia-benzo[e]azulene]		22 nM	224 to 225 °C
CCCN(C=O)C[C@H]1CC[C@H](Nc2nc3c(s2)CCOc2ccccc2-3)CC1 [Example 85, N-{[4-(4,5-Dihydrobenzo[2,3]oxepino[4,5-d][1,3]-thiazol-2-ylamino)cyclohexyl]methyl}-N-propylformamide]		150 nM	53 to 55 °C
COc1ccc2c(c1)OCCc1sc(NC[C@H]3CC[C@H](NS(C)(=O)=O)CC3)nc1-2 [Example 61, trans-1-Aza-4,5-dihydro-8-methoxy-2-{4-methyl-sulfonyl-amino)cyclohexylmethylamino-6-oxa-3-thia-benzo [e]azulene]		162 nM	65 to 70 °C
O=S(=O)(N[C@H]1CC[C@H](CNc2nc3c(s2)CCCc2ccc(F)cc2-3)CC1)c1cccnc1 [Example 62, trans-1-Aza-9-fluoro-4,5-dihydro-2-{4-(3-pyridyl)sulfonylamino}cyclohexylmethylamino-3-thia-benzo[e]azulene]		1.8 nM	158 to 160 °C
COc1ccc2c(c1)CCCc1sc(N[C@H]3CC[C@H](CNS(=O)(=O)N4CCOCC4)CC3)nc1-2 (as salt: hydrochloride) [Example 78, trans-N2-(4-(1-Morpholinylsulfonylaminomethyl)-cyclohexyl-8-methoxy-5,6-dihydro-4H-benzo[6,7]-cyclohepta[d][1,3]thiazol-2-amine hydrochloride]			130 to 132 °C
COCCN(C=O)[C@H]1CC[C@H](CNc2nc3c(s2)CCOc2ccccc2-3)CC1 (as salt: HCl) [Example 86, N-{4-[(4,5-dihydrobenzo[2,3]oxepino[4,5-d][1,3]thiazol-2-ylamino)methyl]cyclohexyl}-N-(2-methoxyethyl)formamide]			164 to 166 °C
